Source: ChEMBL document CHEMBL1136345, “Heterocyclic ketones as inhibitors of histone deacetylase” (Bioorg Med Chem Lett, 2003)

molecular target: Histone deacetylase; assay: Inhibitory activity against Histone deacetylase (HDAC) in K 562 erythroleukemia cells (Radioactivity based HDAC assay); parameters: species or system Homo sapiens; details: not given

IC50	Compound
> 50 µM	O=C(CCCCCCOc1ccc(-c2ccccc2)cc1)c1nc2ccccc2o1
> 50 µM	Cn1cncc1C(=O)CCCCCCOc1ccc(-c2ccccc2)cc1
> 50 µM	OC(CCCCCCOc1cccc(-c2ccccc2)c1)c1ncco1 (centres undefined)
> 50 µM	O=C(CCCCCCOc1ccc(-c2ccccc2)cc1)c1ccccn1
> 50 µM	Cn1ccnc1C(=O)CCCCCCOc1ccc(-c2ccccc2)cc1
> 50 µM	O=C(c1ncco1)[C@@H]1C[C@H]1CCCCOc1ccc(Oc2ccccc2)cc1
> 50 µM	O=C(CCCCCCOc1ccc(-c2ccccc2)cc1)c1ncc[nH]1
> 50 µM	O=C(CCCCCCOc1ccc(-c2ccccc2)cc1)c1nccs1
> 50 µM	O=C(CCCCCCOc1ccc(-c2ccccc2)cc1)c1nc2ncccc2o1
> 10 µM	O=C(CCCCCC(=O)c1ncco1)NNc1ccc(Cl)cc1
1.83 µM	O=C(CCCCCCC(=O)c1ncco1)NNC(=O)c1ccc(-c2ccccc2)cc1

Compound	IC50
O=C(CCCCCCc1nnc(-c2ccc(-c3ccccc3)cc2)o1)c1ncco1	0.25 µM

molecular target: Histone deacetylase; assay: In vitro inhibition of Histone deacetylase in K 562 erythroleukemia cells.; parameters: species or system Homo sapiens; details: not given

Compound	IC50
O=C(CCCCCCOc1ccc(-c2ccccc2)cc1)c1nnn[nH]1	2 µM
O=C(CCCCCCC(=O)c1ncco1)Nc1ccc(Cl)cc1	0.32 µM
O=C(CCCCCCOc1ccc2ccccc2c1)c1ncco1	0.52 µM
O=C(CCCCCC(=O)c1ncco1)Nc1cccc(-c2ccccc2)c1	0.31 µM
COc1ccc(-c2csc(NC(=O)CCCCCCC(=O)c3ncco3)n2)cc1	0.03 µM
O=C(CCCCCCNc1ccc2ccccc2c1)c1ncco1	0.43 µM
O=C(CCCCC/C=C/c1ccc(-c2ccccc2)cc1)c1ncco1	0.99 µM
O=C(CCCCCCOc1ccc(-c2ccccc2)cc1)c1ncco1	1.1 µM
O=C(CCCCCCOc1ccc(-c2ccccc2)cc1)C1=NCCO1	1.8 µM
O=C(CCCCCCOc1cccc(-c2ccccc2)c1)c1ncco1	0.62 µM
O=C(CCCCCCC(=O)c1ncco1)Nc1cccc(-c2ccccc2)c1	0.06 µM
O=C(CCCCCCSc1ccc2ccccc2c1)c1ncco1	0.54 µM
O=C(CCCCCC(=O)c1ncco1)Nc1ccc(Cl)cc1	1.5 µM
O=C(CCCCCCC(=O)c1ncco1)Nc1ccc(Oc2ccccc2)cc1	0.58 µM
O=C(CCCCCC(=O)c1ncco1)NCc1ccc(Cl)cc1	6.4 µM
O=C(NCCCCCCC(=O)c1ncco1)c1cc2ccccc2[nH]1	0.09 µM
O=C(CCCCCCS(=O)(=O)c1ccc2ccccc2c1)c1ncco1	0.61 µM
O=C(NCCCCCC(=O)c1ncco1)c1cc2ccccc2[nH]1	0.34 µM

system: not listed separately; assay: Half-life was determined; assay type: ADME; details: human

Compound	half-life
O=C(CCCCCCOc1ccc(-c2ccccc2)cc1)c1ncco1	10.8 min
O=C(CCCCCCOc1cccc(-c2ccccc2)c1)c1ncco1	12.6 min

molecular target: Histone deacetylase; parameters: species or system Homo sapiens; details: not given

IC50	Compound
0.11 µM	CNC(=O)C(=O)CCCCCCOc1ccc(-c2ccccc2)cc1

system: not listed separately; assay: Anti-proliferative activity against MDA-435 cells mediated by HDAC inhibition; assay type: functional, cell-based; details: Homo sapiens, MDA435

Compound	IC50
COc1ccc(-c2csc(NC(=O)CCCCCCC(=O)c3ncco3)n2)cc1	2.3 µM
